Experimental data: US20240218022A1, “ANTI-VISTA MACROCYCLIC PEPTIDES AND COMPOSITIONS” (BRISTOL-MYERS SQUIBB COMPANY, priority 2022, published 2024)
Like-named read-outs stand apart in the source and are kept apart here. Positions of bridges follow the written chain, without caps; N, C: chain ends. Non-standard residues stand in square brackets, D forms with d. Residues, ends and D or L forms follow the SMILES beside them. 2Nal = N[C@@H](Cc1ccc2ccccc2c1)C(=O)O; Ahp(2) = CCCCC[C@H](N)C(=O)O; NHexGly = CCCCCCNCC(=O)O; Nle = CCCC[C@H](N)C(=O)O

Molecular target: T1, mouse VISTA (mVISTA) (Mus musculus, UniProt Q9D659)
T1 construct: expressed in transfected cells; host or cells: Human embryonic kidney 293T cells
T1 sequence (Q9D659 33-308): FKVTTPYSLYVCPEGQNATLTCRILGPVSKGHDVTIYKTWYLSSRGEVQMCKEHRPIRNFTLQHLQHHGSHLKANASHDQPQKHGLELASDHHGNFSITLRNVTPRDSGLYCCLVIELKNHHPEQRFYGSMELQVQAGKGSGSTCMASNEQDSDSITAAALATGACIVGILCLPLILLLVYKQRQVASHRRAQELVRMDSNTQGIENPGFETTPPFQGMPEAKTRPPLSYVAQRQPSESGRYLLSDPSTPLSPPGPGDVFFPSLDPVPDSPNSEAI
Assay: Cell-Based Binding High-Content Assay For mVISTA (HC CBA mVISTA)
Settings: read-out: HC CBA mVISTA IC50
How it was run: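 This high-content binding assay uses HEK293T cells expressing murine VISTA, measuring displacement of 2 nM biotinylated peptide by fluorescent streptavidin imaging. IC50 values come from four-parameter logistic fitting.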

[1] = cell-based binding high-content assay, mVISTA, the 16th table
[2] = 293T cells expressing mouse VISTA, competition with biotinylated peptide (2 nM)

Row | Structure (SMILES) | IC50 [1] [nM] | IC50 [2] [nM]
1 | CCCCCCN1CC(=O)N[C@@H](Cc2ccc(O)cc2)C(=O)N[C@@H](CCCC)C(=O)N[C@@H](CC(N)=O)C(=O)N[C@@H](CCCNC(=N)N)C(=O)N[C@@H](CC(C)C)C(=O)N[C@@H](CCCCC)C(=O)N2CCC[C@H]2C(=O)N[C@@H](C(C)C)C(=O)N[C@@H](CC(=O)O)C(=O)N[C@H](C(=O)N[C@@H](Cc2c[nH]c3ccccc23)C(N)=O)CSCC(=O)N[C@@H](Cc2ccc3ccccc3c2)C(=O)N[C@@H](Cc2ccc(O)cc2)C(=O)N[C@@H](CC(=O)O)C1=O [Ex 1321] ({CH2CO}-[2Nal]YD[NHexGly]Y[Nle]NRL[Ahp(2)]PVDCW-NH2; thioether N-14) | 15.9 | –
2 | CCCCCCN1CC(=O)N[C@@H](Cc2ccc(O)cc2)C(=O)N[C@@H](C(C)C)C(=O)NCC(=O)N[C@@H](CCCNC(=N)N)C(=O)N[C@@H](CC(C)C)C(=O)N[C@@H](CCCCC)C(=O)N2CCC[C@H]2C(=O)N[C@@H](C(C)C)C(=O)N[C@@H](CC(=O)O)C(=O)N[C@H](C(=O)N[C@@H](Cc2ccc(O)cc2)C(N)=O)CSCC(=O)N[C@@H](Cc2ccc3ccccc3c2)C(=O)N[C@@H](Cc2ccc(O)cc2)C(=O)N[C@@H](CC(=O)O)C1=O [Ex 1322] ({CH2CO}-[2Nal]YD[NHexGly]YVGRL[Ahp(2)]PVDCY-NH2; thioether N-14) | 5.5 | –
3 | CCCCCCN1CC(=O)N[C@@H](Cc2ccc(O)cc2)C(=O)N[C@@H](CCCC)C(=O)N[C@@H](CC(N)=O)C(=O)N[C@@H](CCCNC(=N)N)C(=O)N[C@@H](CC(C)C)C(=O)N[C@@H](CCCCC)C(=O)N2CCC[C@H]2C(=O)N[C@@H](C(C)C)C(=O)N[C@@H](CC(=O)O)C(=O)N[C@H](C(=O)N[C@@H](Cc2ccc(O)cc2)C(N)=O)CSCC(=O)N[C@@H](Cc2ccc3ccccc3c2)C(=O)N[C@@H](Cc2ccc(O)cc2)C(=O)N[C@@H](CC(=O)O)C1=O [Ex 1323] ({CH2CO}-[2Nal]YD[NHexGly]Y[Nle]NRL[Ahp(2)]PVDCY-NH2; thioether N-14) | 13.5 | –
4 | CCCCCCN1CC(=O)N[C@@H](Cc2ccc(O)cc2)C(=O)N[C@@H](CCCC)C(=O)N[C@@H](CC(=O)O)C(=O)N[C@@H](CCCNC(=N)N)C(=O)N[C@@H](CC(C)C)C(=O)N[C@@H](CCCCC)C(=O)N2CCC[C@H]2C(=O)N[C@@H](C(C)C)C(=O)N[C@@H](CC(=O)O)C(=O)N[C@H](C(=O)N[C@@H](CC(=O)O)C(N)=O)CSCC(=O)N[C@@H](Cc2ccccc2)C(=O)N[C@@H](Cc2ccc(O)cc2)C(=O)N[C@@H](CC(=O)O)C1=O [Example 1001] ({CH2CO}-FYD[NHexGly]Y[Nle]DRL[Ahp(2)]PVDCD-NH2; thioether N-14) | – | 12.7
5 | CCCCCCN1CC(=O)N[C@@H](Cc2ccc(O)cc2)C(=O)N[C@@H](CCCCC)C(=O)N[C@@H](CC(=O)O)C(=O)N[C@@H](CCCNC(=N)N)C(=O)N[C@@H](CC(C)C)C(=O)N[C@@H](CCCCC)C(=O)N2CCC[C@H]2C(=O)N[C@@H](C(C)C)C(=O)N[C@@H](CC(=O)O)C(=O)N[C@H](C(=O)N[C@H](CC(=O)O)C(N)=O)CSCC(=O)N[C@@H](Cc2ccccc2)C(=O)N[C@@H](Cc2ccc(O)cc2)C(=O)N[C@@H](CC(=O)O)C1=O [Example 1002] ({CH2CO}-FYD[NHexGly]Y[Ahp(2)]DRL[Ahp(2)]PVDC[dD]-NH2; thioether N-14) | – | 14.9
6 | CCCCCCN1CC(=O)N[C@@H](Cc2ccc(O)cc2)C(=O)N[C@@H](CCCC)C(=O)N[C@@H](CC(=O)O)C(=O)N[C@@H](CCCNC(=N)N)C(=O)N[C@@H](CC(C)C)C(=O)N[C@@H](CCCCC)C(=O)N2CCC[C@H]2C(=O)N[C@@H](C(C)C)C(=O)N[C@@H](CC(=O)O)C(=O)N[C@H](C(=O)N[C@H](CC(=O)O)C(N)=O)CSCC(=O)N[C@@H](Cc2ccccc2)C(=O)N[C@@H](Cc2ccc(O)cc2)C(=O)N[C@@H](CC(=O)O)C1=O [Example 1003] ({CH2CO}-FYD[NHexGly]Y[Nle]DRL[Ahp(2)]PVDC[dD]-NH2; thioether N-14) | – | 18.8

Second part, the compound after the results:

Row | IC50 [1] [nM] | IC50 [2] [nM] | Structure (SMILES)
7 | – | 12.9 | CCCCCCN1CC(=O)N[C@@H](Cc2ccc(O)cc2)C(=O)N[C@@H](CCCCC)C(=O)N[C@@H](CC(=O)O)C(=O)N[C@@H](CCCNC(=N)N)C(=O)N[C@@H](CC(C)C)C(=O)N[C@@H](CCCCC)C(=O)N2CCC[C@H]2C(=O)N[C@@H](C(C)C)C(=O)N[C@@H](CC(=O)O)C(=O)N[C@H](C(=O)N[C@@H](CCC(=O)O)C(N)=O)CSCC(=O)N[C@@H](Cc2ccccc2)C(=O)N[C@@H](Cc2ccc(O)cc2)C(=O)N[C@@H](CC(=O)O)C1=O [Example 1004] ({CH2CO}-FYD[NHexGly]Y[Ahp(2)]DRL[Ahp(2)]PVDCE-NH2; thioether N-14)
8 | – | 12.7 | CCCCCCN1CC(=O)N[C@@H](Cc2ccc(O)cc2)C(=O)N[C@@H](CCCC)C(=O)N[C@@H](CC(=O)O)C(=O)N[C@@H](CCCNC(=N)N)C(=O)N[C@@H](CC(C)C)C(=O)N[C@@H](CCCCC)C(=O)N2CCC[C@H]2C(=O)N[C@@H](C(C)C)C(=O)N[C@@H](CC(=O)O)C(=O)N[C@H](C(=O)N[C@@H](CCC(=O)O)C(N)=O)CSCC(=O)N[C@@H](Cc2ccccc2)C(=O)N[C@@H](Cc2ccc(O)cc2)C(=O)N[C@@H](CC(=O)O)C1=O [Example 1005] ({CH2CO}-FYD[NHexGly]Y[Nle]DRL[Ahp(2)]PVDCE-NH2; thioether N-14)
9 | – | 38.6 | CCCCCCN1CC(=O)N[C@@H](Cc2ccc(O)cc2)C(=O)N[C@@H](CCCCC)C(=O)N[C@@H](CC(N)=O)C(=O)N[C@@H](CCCNC(=N)N)C(=O)N[C@@H](CC(C)C)C(=O)N[C@@H](CCCCC)C(=O)N2CCC[C@H]2C(=O)N[C@@H](C(C)C)C(=O)N[C@@H](C)C(=O)N[C@H](C(=O)NCC(N)=O)CSCC(=O)N[C@@H](Cc2ccccc2)C(=O)N[C@@H](Cc2ccc(O)cc2)C(=O)N[C@@H](CC(=O)O)C1=O [Example 1006] ({CH2CO}-FYD[NHexGly]Y[Ahp(2)]NRL[Ahp(2)]PVACG-NH2; thioether N-14)
10 | – | 15.1 | CCCCCCN1CC(=O)N[C@@H](Cc2ccc(O)cc2)C(=O)N[C@@H](CCCC)C(=O)NCC(=O)N[C@@H](CCCNC(=N)N)C(=O)N[C@@H](CC(C)C)C(=O)N[C@@H](CCCCC)C(=O)N2CCC[C@H]2C(=O)N[C@@H](C(C)C)C(=O)N[C@@H](C)C(=O)N[C@H](C(=O)NCC(=O)O)CSCC(=O)N[C@@H](Cc2ccccc2)C(=O)N[C@@H](Cc2ccc(O)cc2)C(=O)N[C@@H](CC(=O)O)C1=O [Example 1007] ({CH2CO}-FYD[NHexGly]Y[Nle]GRL[Ahp(2)]PVACG-OH; thioether N-14)
11 | – | 34.9 | CCCCCCN1CC(=O)N[C@@H](Cc2ccc(O)cc2)C(=O)N[C@@H](CC(C)C)C(=O)N[C@@H](CC(N)=O)C(=O)N[C@@H](CCCNC(=N)N)C(=O)N[C@@H](CC(C)C)C(=O)N[C@@H](CCCCC)C(=O)N2CCC[C@H]2C(=O)N[C@@H](C(C)C)C(=O)N[C@@H](C)C(=O)N[C@H](C(=O)NCC(=O)O)CSCC(=O)N[C@@H](Cc2ccccc2)C(=O)N[C@@H](Cc2ccc(O)cc2)C(=O)N[C@@H](CC(=O)O)C1=O [Example 1008] ({CH2CO}-FYD[NHexGly]YLNRL[Ahp(2)]PVACG-OH; thioether N-14)
12 | – | 8 | CCCCCCN1CC(=O)N[C@@H](Cc2ccc(O)cc2)C(=O)N[C@@H](CCCC)C(=O)NCC(=O)N[C@@H](CCCNC(=N)N)C(=O)N[C@@H](CC(C)C)C(=O)N[C@@H](CCCCC)C(=O)N2CCC[C@H]2C(=O)N[C@@H](C(C)C)C(=O)N[C@@H](CC(=O)O)C(=O)N[C@H](C(=O)NCC(=O)O)CSCC(=O)N[C@@H](Cc2ccccc2)C(=O)N[C@@H](Cc2ccc(O)cc2)C(=O)N[C@@H](CC(=O)O)C1=O [Example 1009] ({CH2CO}-FYD[NHexGly]Y[Nle]GRL[Ahp(2)]PVDCG-OH; thioether N-14)
13 | – | 5.6 | CCCCCCN1CC(=O)N[C@@H](Cc2ccc(O)cc2)C(=O)N[C@@H](CCCC)C(=O)N[C@@H](CC(=O)O)C(=O)N[C@@H](CCCNC(=N)N)C(=O)N[C@@H](CC(C)C)C(=O)N[C@@H](CCCCC)C(=O)N2CCC[C@H]2C(=O)N[C@@H](C(C)C)C(=O)N[C@@H](CC(=O)O)C(=O)N[C@H](C(=O)NCC(=O)O)CSCC(=O)N[C@@H](Cc2ccccc2)C(=O)N[C@@H](Cc2ccc(O)cc2)C(=O)N[C@@H](CC(=O)O)C1=O [Example 1010] ({CH2CO}-FYD[NHexGly]Y[Nle]DRL[Ahp(2)]PVDCG-OH; thioether N-14)
14 | – | 15.9 | CCCCCCN1CC(=O)N[C@@H](Cc2ccc(O)cc2)C(=O)N[C@@H](CC(C)C)C(=O)N[C@@H](CC(N)=O)C(=O)N[C@@H](CCCNC(=N)N)C(=O)N[C@@H](CC(C)C)C(=O)N[C@@H](CCCCC)C(=O)N2CCC[C@H]2C(=O)N[C@@H](C(C)C)C(=O)N[C@@H](CC(=O)O)C(=O)N[C@H](C(=O)NCC(=O)O)CSCC(=O)N[C@@H](Cc2ccccc2)C(=O)N[C@@H](Cc2ccc(O)cc2)C(=O)N[C@@H](CC(=O)O)C1=O [Example 1011] ({CH2CO}-FYD[NHexGly]YLNRL[Ahp(2)]PVDCG-OH; thioether N-14)
15 | – | 21.1 | CCCCCCN1CC(=O)N[C@@H](Cc2ccc(O)cc2)C(=O)N[C@@H](CCCNC(=N)N)C(=O)N[C@@H](CC(N)=O)C(=O)N[C@@H](CCCNC(=N)N)C(=O)N[C@@H](CC(C)C)C(=O)N[C@@H](CCCCC)C(=O)N2CCC[C@H]2C(=O)N[C@@H](C(C)C)C(=O)N[C@@H](CC(=O)O)C(=O)N[C@H](C(=O)NCC(=O)O)CSCC(=O)N[C@@H](Cc2ccccc2)C(=O)N[C@@H](Cc2ccc(O)cc2)C(=O)N[C@@H](CC(=O)O)C1=O [Example 1012] ({CH2CO}-FYD[NHexGly]YRNRL[Ahp(2)]PVDCG-OH; thioether N-14)
